Measurements: patent US12331044B2, “Inhibitors of histone deacetylase useful for the treatment or prevention of HIV infection” (Merck Sharp & Dohme LLC, priority 2018, dated 2025)
Where two headings read alike, the source gives them in different places.

Legend:
[1] = target: human HDAC3/SMRT heterodimer (Homo sapiens (Human), UniProt O15379); assay: biochemical
[2] = target: HDAC6 (Homo sapiens (Human), UniProt Q9UBN7); assay: biochemical
Protocol: (§1) The histone deacetylase activities of HDAC1, HDAC2, HDAC3, HDAC6, and HDAC8 were measured in modified FLUOR DE LYS assays in 384-well format. In this assay, HDAC enzymes are initially incubated with an F-acetyl (or -trifluoroacetyl)-L-lysine-containing substrate with a C-terminal amide having aminomethylcoumarin as the amine component. HDACs cleave the F-acetyl group, rendering the resulting product susceptible to AMC cleavage by trypsin. The released AMC is then detected by its fluorescence. […] All steps were performed at room temperature (23° C.). The assay was performed by pre-incubating serial dilutions of test compounds with the target HDAC prior to initiation with substrate. […] Final conditions used for each assay were: 1. […] The reactions were stopped and developed by addition of 30 ul of HDAC developer solution containing a saturating level of HDAC inhibitor as follows: 1. […] For data analysis, background subtracted product (fluorescence) vs. time data for each inhibitor concentration was fitted using a 4-parameter fit.

[3] = test system: KARN cells (Jurkat 2C4); assay: cells; settings: Homo sapiens
[4] = target: human HDAC2 (Homo sapiens (Human), UniProt Q92769); assay: HDAC2 inhibition assay (modified FLUOR DE LYS, 384-well); type: biochemical; settings: […] nM enzyme, 40 μM substrate BML-KI104, 3 h pre-incubation; read-out: HDAC2 IC50
[5] = target: human HDAC8 (Homo sapiens (Human), UniProt Q9BY41); assay: HDAC8 inhibition assay (modified FLUOR DE LYS, 384-well); type: biochemical; settings: […] nM enzyme, 200 μM substrate BML-KI178, 3 h pre-incubation; read-out: HDAC8 IC50
Protocol: as §1

[6] = target: human HDAC1 (Homo sapiens (Human), UniProt Q13547); assay: biochemical
[7] = read-out: Karn EC50 nM 0.1% NHS, 0.1% normal human serum, luciferase induction, 2 μM SAHA = 100%
[8] = read-out: Karn EC50 nM 5% NHS, 5% normal human serum, luciferase induction, 2 μM SAHA = 100%

Chain of human HDAC2 (Q92769 whole entry): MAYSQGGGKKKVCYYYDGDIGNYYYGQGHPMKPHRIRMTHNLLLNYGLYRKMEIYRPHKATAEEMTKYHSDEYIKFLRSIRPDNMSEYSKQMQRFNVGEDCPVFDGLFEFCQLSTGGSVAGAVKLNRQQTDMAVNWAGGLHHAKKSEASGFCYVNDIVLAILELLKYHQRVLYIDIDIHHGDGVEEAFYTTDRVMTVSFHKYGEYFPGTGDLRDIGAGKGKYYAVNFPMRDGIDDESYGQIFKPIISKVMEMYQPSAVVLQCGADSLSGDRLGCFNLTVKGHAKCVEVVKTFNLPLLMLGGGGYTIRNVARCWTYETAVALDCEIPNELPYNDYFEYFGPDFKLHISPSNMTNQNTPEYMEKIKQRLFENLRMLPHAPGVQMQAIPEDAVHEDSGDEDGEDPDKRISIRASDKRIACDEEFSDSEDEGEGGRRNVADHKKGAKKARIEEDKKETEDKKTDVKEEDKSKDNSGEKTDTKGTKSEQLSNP
Chain of human HDAC8 (Q9BY41 whole entry): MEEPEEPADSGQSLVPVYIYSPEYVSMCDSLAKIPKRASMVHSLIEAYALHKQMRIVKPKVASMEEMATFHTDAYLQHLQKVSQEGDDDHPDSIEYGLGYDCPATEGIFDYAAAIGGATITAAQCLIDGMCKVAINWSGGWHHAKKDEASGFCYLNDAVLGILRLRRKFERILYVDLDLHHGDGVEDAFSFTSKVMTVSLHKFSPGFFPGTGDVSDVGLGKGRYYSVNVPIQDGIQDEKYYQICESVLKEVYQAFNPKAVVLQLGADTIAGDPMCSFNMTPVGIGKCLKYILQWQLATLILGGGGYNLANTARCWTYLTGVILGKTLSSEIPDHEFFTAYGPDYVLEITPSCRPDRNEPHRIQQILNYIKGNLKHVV
Chain of HDAC6 (Q9UBN7 whole entry): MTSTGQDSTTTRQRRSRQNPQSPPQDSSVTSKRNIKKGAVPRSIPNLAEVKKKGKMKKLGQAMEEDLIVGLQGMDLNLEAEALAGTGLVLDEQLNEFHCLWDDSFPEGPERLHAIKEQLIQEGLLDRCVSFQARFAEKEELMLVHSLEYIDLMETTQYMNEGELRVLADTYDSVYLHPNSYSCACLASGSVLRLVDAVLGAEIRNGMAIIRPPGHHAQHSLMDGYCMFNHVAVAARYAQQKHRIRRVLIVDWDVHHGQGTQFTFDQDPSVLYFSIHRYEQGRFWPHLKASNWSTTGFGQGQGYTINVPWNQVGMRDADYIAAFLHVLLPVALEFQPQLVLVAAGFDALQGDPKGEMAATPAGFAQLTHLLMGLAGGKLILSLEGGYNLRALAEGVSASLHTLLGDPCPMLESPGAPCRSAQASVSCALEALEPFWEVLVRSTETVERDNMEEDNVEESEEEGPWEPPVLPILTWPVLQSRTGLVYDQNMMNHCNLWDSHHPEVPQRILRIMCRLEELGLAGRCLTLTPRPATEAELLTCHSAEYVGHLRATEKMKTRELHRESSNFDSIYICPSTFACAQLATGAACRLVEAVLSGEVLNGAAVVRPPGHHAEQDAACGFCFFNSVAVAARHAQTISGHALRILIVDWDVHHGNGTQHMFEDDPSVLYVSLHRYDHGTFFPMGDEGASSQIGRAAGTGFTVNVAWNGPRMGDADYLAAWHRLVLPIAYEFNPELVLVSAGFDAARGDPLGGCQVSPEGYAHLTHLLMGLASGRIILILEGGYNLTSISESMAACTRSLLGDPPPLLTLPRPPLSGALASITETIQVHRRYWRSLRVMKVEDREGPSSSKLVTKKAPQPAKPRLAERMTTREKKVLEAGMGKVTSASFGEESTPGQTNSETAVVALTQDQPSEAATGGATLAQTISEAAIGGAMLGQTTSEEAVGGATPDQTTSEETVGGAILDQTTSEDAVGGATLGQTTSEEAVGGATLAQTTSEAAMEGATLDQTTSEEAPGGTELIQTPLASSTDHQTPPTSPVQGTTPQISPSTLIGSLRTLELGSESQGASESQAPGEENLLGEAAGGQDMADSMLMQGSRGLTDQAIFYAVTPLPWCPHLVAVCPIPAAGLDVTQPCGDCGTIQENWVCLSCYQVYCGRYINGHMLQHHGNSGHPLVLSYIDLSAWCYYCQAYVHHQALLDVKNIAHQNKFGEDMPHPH
Chain of human HDAC3/SMRT heterodimer (O15379 whole entry): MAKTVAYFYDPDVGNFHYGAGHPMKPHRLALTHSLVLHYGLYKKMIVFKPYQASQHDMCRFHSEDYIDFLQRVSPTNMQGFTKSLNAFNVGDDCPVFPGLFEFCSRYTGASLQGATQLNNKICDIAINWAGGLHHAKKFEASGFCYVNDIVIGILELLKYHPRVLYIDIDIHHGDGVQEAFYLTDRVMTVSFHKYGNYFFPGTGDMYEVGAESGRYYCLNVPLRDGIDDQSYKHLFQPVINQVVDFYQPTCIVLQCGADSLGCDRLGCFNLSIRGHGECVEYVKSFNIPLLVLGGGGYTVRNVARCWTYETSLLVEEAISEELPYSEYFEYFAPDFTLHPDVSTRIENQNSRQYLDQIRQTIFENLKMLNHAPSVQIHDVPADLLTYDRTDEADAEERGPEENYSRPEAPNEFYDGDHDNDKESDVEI
Chain of human HDAC3/SMRT heterodimer (Q9Y618 1-899 partner): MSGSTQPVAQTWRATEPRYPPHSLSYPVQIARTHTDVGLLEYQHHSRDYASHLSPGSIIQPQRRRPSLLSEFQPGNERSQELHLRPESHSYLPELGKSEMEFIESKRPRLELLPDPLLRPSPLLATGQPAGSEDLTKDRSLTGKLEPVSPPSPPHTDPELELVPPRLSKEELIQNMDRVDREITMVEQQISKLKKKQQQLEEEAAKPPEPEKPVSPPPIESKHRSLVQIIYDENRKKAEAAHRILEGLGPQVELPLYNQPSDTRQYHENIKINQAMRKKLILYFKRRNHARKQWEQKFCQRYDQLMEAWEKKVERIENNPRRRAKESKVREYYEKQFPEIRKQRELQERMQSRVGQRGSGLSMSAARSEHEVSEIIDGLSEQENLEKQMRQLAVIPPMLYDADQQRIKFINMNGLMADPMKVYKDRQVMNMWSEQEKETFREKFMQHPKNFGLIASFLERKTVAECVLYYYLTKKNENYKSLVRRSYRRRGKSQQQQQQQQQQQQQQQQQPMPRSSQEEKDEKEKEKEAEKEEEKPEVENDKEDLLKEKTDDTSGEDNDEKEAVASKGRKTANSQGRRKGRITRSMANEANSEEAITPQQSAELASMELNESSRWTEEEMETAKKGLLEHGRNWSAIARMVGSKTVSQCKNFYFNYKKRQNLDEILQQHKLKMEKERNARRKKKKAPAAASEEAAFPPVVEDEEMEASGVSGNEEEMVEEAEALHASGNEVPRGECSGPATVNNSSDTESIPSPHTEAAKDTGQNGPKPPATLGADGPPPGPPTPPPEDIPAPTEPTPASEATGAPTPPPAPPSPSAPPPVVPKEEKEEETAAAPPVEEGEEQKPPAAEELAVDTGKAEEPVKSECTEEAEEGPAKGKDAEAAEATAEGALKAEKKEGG
Chain of human HDAC1 (Q13547 whole entry): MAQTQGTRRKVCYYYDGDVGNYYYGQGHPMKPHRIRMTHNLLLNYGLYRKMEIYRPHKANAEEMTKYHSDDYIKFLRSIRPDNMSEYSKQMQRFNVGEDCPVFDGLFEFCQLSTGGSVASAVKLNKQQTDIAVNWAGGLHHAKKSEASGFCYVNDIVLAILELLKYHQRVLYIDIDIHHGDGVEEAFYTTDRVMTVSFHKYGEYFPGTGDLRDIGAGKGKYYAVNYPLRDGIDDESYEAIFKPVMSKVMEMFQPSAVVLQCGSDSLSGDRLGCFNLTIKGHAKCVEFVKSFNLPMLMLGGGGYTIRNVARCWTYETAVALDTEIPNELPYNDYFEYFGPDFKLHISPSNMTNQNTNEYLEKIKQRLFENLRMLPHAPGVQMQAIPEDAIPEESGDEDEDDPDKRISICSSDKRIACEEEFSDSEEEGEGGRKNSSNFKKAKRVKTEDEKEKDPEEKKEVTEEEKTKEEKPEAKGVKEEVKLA

**Q.** `COc1cc2nc(C)ccc2cc1-c1cnc([C@H](CCCCCC(=O)c2ncco2)NC(=O)C2CN(C)C2)o1` [Example 100, (S)-N-(1-(5-(7-methoxy-2-methylquinolin-6-yl)oxazol-2-yl)-7-(oxazol-2-yl)-7-oxoheptyl)-1-methylazetidine-3-carboxamide] was tested. Which IC50 [1] did it give?
**A.** Its IC50 is 0.28 nM.

**Q.** What about the IC50 [2] of the same molecule?
**A.** The IC50 was 620 nM.

**Q.** What about the EC50 ([3]; read-out: Karn EC50 nM 0.1% NHS) of the same molecule?
**A.** The EC50 was 19 nM.

**Q.** And the EC50 ([3]; read-out: Karn EC50 nM 5% NHS)?
**A.** Its EC50 is 21 nM.

**Q.** What about the IC50 [4] of the same molecule?
**A.** The IC50 was 1.3 nM.

**Q.** And the IC50 [5]?
**A.** The IC50 was 130 nM.

**Q.** And the IC50 [6]?
**A.** The IC50 was 0.45 nM.

**Q.** Which IC50 [1] does the source give for `CN1CC(C(=O)N[C@@H](CCCCCC(=O)c2ncco2)c2[nH]c(-c3ccc(F)cc3)nc2Cl)C1` [Example 101, (S)-N-(1-(4-chloro-2-(4-fluorophenyl)-1H-imidazol-5-yl)-7-(oxazol-2-yl)-7-oxoheptyl)-1-methylazetidine-3-carboxamide] here?
**A.** Its IC50 is 1.5 nM.

**Q.** And the IC50 [2]?
**A.** The IC50 was at least 45000 nM.

**Q.** What about the EC50 [3, 7] of the same molecule?
**A.** Its EC50 is 27 nM.

**Q.** What about the EC50 [3, 8] of the same molecule?
**A.** Its EC50 is 22 nM.

**Q.** What about the IC50 [4] of the same molecule?
**A.** Its IC50 is 1.5 nM.

**Q.** And the IC50 [5]?
**A.** Its IC50 is 340 nM.

**Q.** And the IC50 [6]?
**A.** The IC50 was 1.5 nM.

**Q.** What does the source list for `CN1CC(C(=O)N[C@@H](CCCCCC(=O)c2ccon2)c2[nH]c(-c3ccccc3F)nc2Cl)C1` [Example 105, (S)-N-(1-(4-chloro-2-(2-fluorophenyl)-1H-imidazol-5-yl)-7-(isoxazol-3-yl)-7-oxoheptyl)-1-methylazetidine-3-carboxamide]?
**A.** IC50 [1]: 0.046 nM; IC50 [2]: 8500 nM; EC50 [3, 7]: 2.8 nM; EC50 [3, 8]: 3.5 nM; IC50 [4]: 0.37 nM; IC50 [5]: 29 nM; IC50 [6]: 0.12 nM

**Q.** `COc1cc2nc(C)ccc2cc1-c1cnc([C@H](CCCCCC(=O)c2ccon2)NC(=O)C2CN(C)C2)o1` [Example 108, (S)-N-(7-(isoxazol-3-yl)-1-(5-(7-methoxy-2-methylquinolin-6-yl)oxazol-2-yl)-7-oxoheptyl)-1-methylazetidine-3-carboxamide] was tested. Which IC50 [1] did it give?
**A.** Its IC50 is 0.19 nM.

**Q.** And the IC50 [2]?
**A.** Its IC50 is over 900 nM.

**Q.** What about the EC50 [3, 7] of the same molecule?
**A.** Its EC50 is 6.4 nM.

**Q.** What about the EC50 [3, 8] of the same molecule?
**A.** The EC50 was 6.1 nM.

**Q.** What about the IC50 [4] of the same molecule?
**A.** Its IC50 is 0.35 nM.

**Q.** And the IC50 [5]?
**A.** The IC50 was 5.8 nM.

**Q.** And the IC50 [6]?
**A.** Its IC50 is 0.18 nM.

**Q.** What does the source list for `COc1cc2nc(C)ccc2cc1-c1cnc([C@H](CCCCCC(=O)c2ccon2)NC(=O)[C@H]2CC23CCN(C)CC3)[nH]1` [Example 110, (S)-N-((S)-7-(isoxazol-3-yl)-1-(5-(7-methoxy-2-methylquinolin-6-yl)-1H-imidazol-2-yl)-7-oxoheptyl)-6-methyl-6-azaspiro[2.5]octane-1-carboxamide]?
**A.** IC50 [1]: 0.18 nM; IC50 [2]: 2500 nM; EC50 [3, 7]: 11 nM; EC50 [3, 8]: 11 nM; IC50 [4]: 0.87 nM; IC50 [5]: 2.7 nM; IC50 [6]: 0.18 nM

**Q.** Which IC50 [1] does the source give for `COc1ncccc1-c1cnc(C(CCCCCC(=O)c2ncco2)NC(=O)[C@H]2CC23CCN(C)CC3)o1` (stereo partly drawn) [Example 114, (1S)-N-(1-(5-(2-methoxypyridin-3-yl)oxazol-2-yl)-7-(oxazol-2-yl)-7-oxoheptyl)-6-methyl-6-azaspiro[2.5]octane-1-carboxamide] here?
**A.** Its IC50 is 13 nM.

**Q.** And the IC50 [2]?
**A.** Its IC50 is over 900 nM.

**Q.** And the EC50 [3, 7]?
**A.** The EC50 was 3400 nM.

**Q.** And the EC50 [3, 8]?
**A.** The EC50 was 4200 nM.

**Q.** And the IC50 [4]?
**A.** Its IC50 is 120 nM.

**Q.** And the IC50 [5]?
**A.** The IC50 was over 900 nM.

**Q.** And the IC50 [6]?
**A.** The IC50 was 26 nM.

**Q.** How did the IC50 [1] turn out when `Cc1ccc2cc(-c3cnc([C@H](CCCCCC(=O)c4ncco4)NC(=O)C4=NOC5(CCN(C)CC5)C4)o3)ccc2n1` [Example 116, (S)-8-methyl-N-(1-(5-(2-methylquinolin-6-yl)oxazol-2-yl)-7-(oxazol-2-yl)-7-oxoheptyl)-1-oxa-2,8-diazaspiro[4.5]dec-2-ene-3-carboxamide] was run?
**A.** Its IC50 is 1.5 nM.

**Q.** What about the IC50 [2] of the same molecule?
**A.** The IC50 was 4100 nM.

**Q.** And the EC50 [3, 7]?
**A.** Its EC50 is 95 nM.

**Q.** And the EC50 [3, 8]?
**A.** Its EC50 is 120 nM.

**Q.** And the IC50 [4]?
**A.** The IC50 was 9.7 nM.

**Q.** What about the IC50 [5] of the same molecule?
**A.** The IC50 was 250 nM.

**Q.** And the IC50 [6]?
**A.** The IC50 was 4.8 nM.

**Q.** With `COc1cc2nc(C)ccc2cc1-c1cnc([C@H](CCCCCC(=O)c2ncco2)NC(=O)C2CCC3(CC2)CN(C)C3)[nH]1` [Example 117, (S)-N-(1-(5-(7-methoxy-2-methylquinolin-6-yl)-1H-imidazol-2-yl)-7-(oxazol-2-yl)-7-oxoheptyl)-2-methyl-2-azaspiro[3.5]nonane-7-carboxamide] as the molecule, how does the IC50 [1] read?
**A.** The IC50 was 1.4 nM.

**Q.** What about the IC50 [2] of the same molecule?
**A.** Its IC50 is 680 nM.

**Q.** What about the EC50 [3, 7] of the same molecule?
**A.** Its EC50 is 320 nM.

**Q.** And the EC50 [3, 8]?
**A.** The EC50 was 320 nM.

**Q.** And the IC50 [4]?
**A.** The IC50 was 5.8 nM.

**Q.** And the IC50 [5]?
**A.** The IC50 was 21 nM.

**Q.** And the IC50 [6]?
**A.** The IC50 was 0.82 nM.
